Laboratory results from patent US10323027B2, “2,3-dihydro-4H-1,3-benzoxazin-4-one derivatives as modulators of cholinergic muscarinic M1 receptor” (Takeda Pharmaceutical Company Limited, priority 2015, dated 2019).
Counter-ions that a name gives are not always drawn.

Columns and labels:
[1] = target: T1, human M1 receptor (hCHRM1) (Homo sapiens, UniProt P11229); assay: Measurement of M1 receptor positive allosteric modulator (M1PAM) activity, Ca2+ fluorescence by FLIPRtetra (Experimental Example 1); assay type: cell-based; details: for activity (%) at 10 μM: 10 μM test compound, 100% = acetylcholine 1 μM, 0% = DMSO; for EC50: inflection point of concentration-dependent curve, in presence of acetylcholine at EC20 (0.8-1.0 nM), CHO-K1 cells expressing hCHRM1, read-out: IP value
T1 construct: expressed in transfected cells
T1 sequence (P11229 1-460): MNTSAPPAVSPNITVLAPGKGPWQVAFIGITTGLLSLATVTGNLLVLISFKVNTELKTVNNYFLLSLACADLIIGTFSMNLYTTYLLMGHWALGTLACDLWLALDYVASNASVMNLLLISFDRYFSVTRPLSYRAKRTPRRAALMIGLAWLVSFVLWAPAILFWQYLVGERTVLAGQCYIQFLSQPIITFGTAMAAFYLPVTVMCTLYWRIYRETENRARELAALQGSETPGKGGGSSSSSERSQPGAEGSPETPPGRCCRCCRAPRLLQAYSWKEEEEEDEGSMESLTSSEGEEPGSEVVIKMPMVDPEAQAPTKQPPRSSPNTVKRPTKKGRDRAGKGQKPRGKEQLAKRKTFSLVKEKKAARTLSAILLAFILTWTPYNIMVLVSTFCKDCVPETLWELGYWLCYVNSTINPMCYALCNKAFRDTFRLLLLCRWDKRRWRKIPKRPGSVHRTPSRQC
Method in brief: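 CHO-K1 cells stably expressing hCHRM1, loaded with Fluo-4 AM (probenecid), received compound with acetylcholine at EC20 (final 0.8-1.0 nM); Ca2+ fluorescence read 1 min by FLIPRtetra. Activity scaled 0% (DMSO) to 100% (1 μM acetylcholine); IP from inflection point of concentration curve.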

[2] = tested on: Myo-Inositol 1 Phosphate (IP1); assay: Measurement of myo-inositol 1 phosphate (IP1) in rat hippocampi after oral administration (Experimental Example 3); assay type: in vivo, male Long-Evans rats; details: IP1 production (IP1/protein) in rat hippocampi; 10 mg/kg oral; relative to Vehicle administration group as 100%
Description: Measurement of Myo-Inositol 1 Phosphate (IP1)
Animals used were male Long-Evans rats. They were used after acclimation for at least 1 week. Test compounds were suspended in 0.5% (w/v) aqueous methylcellulose solution, and the suspension was orally administered to the rats. After a given time, lithium chloride dissolved in saline was subcutaneously administered into the rats. After a given time, their bilateral hippocampi were isolated from the rats, and the wet weight thereof was measured. The isolated hippocampi were homogenized with HEPES (registered trademark) buffer, followed by centrifugation. The IP1 and protein concentrations in the supernatant were measured by IP-One HTRF assay kit (Cisbio Bioassays) and BCA protein assay kit (Thermo Scientific), respectively. The level of the IP1 production was expressed as the ratio of the concentration of IP1 to that of protein. The increase rate of the IP1 production was shown as a relative value when Vehicle administration group as 100%.

[3] = tested on: Scopolamine-induced memory deficits models; assay: Novel object recognition test (Experimental Example 4); assay type: in vivo, male Long-Evans rats; details: scopolamine 0.1 mg/kg s.c., retention trial 4 hr after acquisition, mean±standard error
Description: Novel Object Recognition Test Novel object recognition test is comprised of two trials called the acquisition and the retention trials. Scopolamine-induced memory deficits models were used for the test, and animals used were male Long-Evans rats. On the day before the test, for acclimation, the rats were allowed to freely move about the test box (40×40×50 cm) for 10 minutes. On the test day, the rats were acclimated to the test room for about 1 hr prior to the test. The test compounds were orally administered to the rats in a single dose a given time before the acquisition trial. For induction of learning and memory deficits, scopolamine (0.1 mg/kg) was subcutaneously administered into the rats 30 min before the acquisition trial. For the acquisition trial, two identical objects (A1, A2) were placed in the test box. The rats were put in the test box for 3 min, and the duration exploring each object was measured. The retention trial was performed 4 hr after the acquisition trial. For the retention trial, one familiar object (A3) used for the acquisition trial and one novel object (B) having a different shape from A3 were placed in the test box. After setting the objects, the rats were introduced into the test box and retention trial was performed for 3 min. The duration for exploring each object in the acquisition trial and the retention trial was measured, and the exploration rate of novel object was calculated. The exploration rate of novel object was expressed as (the duration exploring the novel object)/[(the duration exploring the novel object)+(the duration exploring the familiar object)]×100(%) at mean±standard error.

[4] = target: T1, human M1 receptor (hCHRM1); assay: Measurement of M1 receptor positive allosteric modulator (M1PAM) activity, Ca2+ fluorescence by FDSS/μ cell (Experimental Example 2); assay type: cell-based
Description: Measurement of M1 Receptor Positive Allosteric Modulator (M1PAM) Activity
The activity of a test compound in the presence of acetylcholine at EC20 concentration (final concentration 0.8-1.0 nM), which affords an action corresponding to about 20% of the maximum activity, was measured as PAM activity. The method is as follows. CHO-K1 cells stably expressing a human M1 receptor (hCHRM1) were plated on a 384-well black clear bottom plate (BD Falcon) at 5,000 cells/well, and cultured in an incubator at 37° C., 5% CO2 for 1 day. The medium in the cell plate was removed, and a dye solution (prepared by adding Recording medium (DOJINDO LABORATORIES) to a final concentration of 1×concentration, Fluo-4 AM (DOJINDO LABORATORIES) to a final concentration of 2.5 μg/mL, Pluronic F127 (DOJINDO LABORATORIES) to a final concentration of 0.08%, and probenecid (DOJINDO LABORATORIES) to a final concentration of 1.25 mM to assay buffer (HBSS (Invitrogen), 20 mM HEPES (Invitrogen), 0.1% BSA (Wako Pure Chemical Industries, Ltd.))) was added at 30 μL/well. The cells were left standing in the incubator at 37° C., 5% CO2 for 30 min, and further left standing at room temperature for 30 min. A test compound prepared by diluting with assay buffer containing 3.2-4.0 nM acetylcholine was added at 10 μL/well, and the fluorescence was measured by FDSS/μ cell (Hamamatsu Photonics K.K.) for 1 min every 1 second. With the definition that the amount of change in the fluorescence on addition of acetylcholine (final concentration 1 μM) is 100% and that on addition of DMSO instead of a test compound is 0%, the activity (%) of the test compound was calculated, and the inflection point in the concentration-dependent curve of the test compound was calculated as IP values.

Row | activity (%) at 10 μM [1] | EC50 [1] | activity (%) at 10 μM ([4]; 10 μM test compound, 100% = acetylcholine 1 μM, 0% = DMSO) | EC50 ([4]; inflection point of concentration-dependent curve, in presence of acetylcholine at EC20 (0.8-1.0 nM), CHO-K1 cells expressing hCHRM1, read-out: IP value) | Compound | increase rate (%) at 10 mg/kg [2] | exploration rate of novel object (%) ([3]; 1 mg/kg oral) | exploration rate of novel object (%) ([3]; 3 mg/kg oral)
1 | 108% | 20 nM |  |  | Cc1ccc(Cc2cc3c(cc2C)OCN([C@H]2CCCC[C@@H]2O)C3=O)cn1 (single isomer, unassigned) [Example 28, 3-(trans-2-hydroxycyclohexyl)-7-methyl-6-((6-methylpyridin-3-yl)methyl)-2,3-dihydro-4H-1,3-benzoxazin-4-one monohydrochloride (optical isomer)] | 36% |  | 
2 | 88% | 6 nM |  |  | Cc1c(Cc2ccc(-n3cccn3)nc2)cc2c(c1F)OCN([C@H]1CCC[C@@H]1O)C2=O [Example 13, 8-fluoro-3-((1S,2S)-2-hydroxycyclopentyl)-7-methyl-6-((6-(1H-pyrazol-1-yl)pyridin-3-yl)methyl)-2,3-dihydro-4H-1,3-benzoxazin-4-one] | 102% | 60.2±3.0% | 
3 |  |  | 99% | 4.5 nM | Cc1cc2c(cc1Cc1ccc(-c3ccn(C)n3)cc1)C(=O)N([C@H]1COCC[C@@H]1O)CO2 [Example 104, 3-((3S,4S)-4-hydroxytetrahydro-2H-pyran-3-yl)-7-methyl-6-(4-(1-methyl-1H-pyrazol-3-yl)benzyl)-2,3-dihydro-4H-1,3-benzoxazin-4-one] | 86% |  | 61.6±2.2%

Row | Compound | activity (%) at 10 μM [1] | EC50 [1] | activity (%) at 10 μM ([4]; 10 μM test compound, 100% = acetylcholine 1 μM, 0% = DMSO) | EC50 ([4]; inflection point of concentration-dependent curve, in presence of acetylcholine at EC20 (0.8-1.0 nM), CHO-K1 cells expressing hCHRM1, read-out: IP value) | increase rate (%) at 10 mg/kg [2] | exploration rate of novel object (%) ([3]; 1 mg/kg oral) | exploration rate of novel object (%) ([3]; 3 mg/kg oral)
4 | Cc1c(Cc2ccc(Cl)nc2)cc2c(c1Cl)OCN([C@H]1CCC[C@@H]1O)C2=O [Example 24, 8-chloro-6-((6-chloropyridin-3-yl)methyl)-3-((1S,2S)-2-hydroxycyclopentyl)-7-methyl-2,3-dihydro-4H-1,3-benzoxazin-4-one] | 94% | 3.1 nM |  |  | 26% |  | 63.5±2.4%
